Results reported in ChEMBL document CHEMBL2150939, “Synthesis and cytotoxicity of novel ursolic acid derivatives containing an acyl piperazine moiety” (Eur J Med Chem, 2012).
pIC50: −log10 of the molar value. Calls of active or inactive are those of the source. No cut-off for these calls is given here.

Key:
[1] = tested on: Bcap37; assay: Growth inhibition of human Bcap37 cells at 10 uM after 72 hrs by MTT assay; assay type: functional; settings: Bcap37, 72 h, read-out: GI
[2] = tested on: MGC-803; assay: Growth inhibition of human MGC803 cells at 10 uM after 72 hrs by MTT assay; assay type: functional; settings: MGC-803, 72 h, read-out: GI
[3] = Growth inhibition of mouse NIH/3T3 cells at 10 uM after 72 hrs by MTT assay; assay type: cell-based, NIH3T3; settings: read-out: GI
[4] = tested on: MGC-803; assay: Antiproliferative activity against human MGC803 cells after 72 hrs by MTT assay; assay type: functional, cell-based; settings: MGC-803, 72 h
[5] = tested on: Bcap37; assay: Antiproliferative activity against human Bcap37 cells after 72 hrs by MTT assay; assay type: functional, cell-based; settings: Bcap37, 72 h
[6] = tested on: MGC-803; assay: Induction of apoptosis in human MGC803 cells assessed as DNA fragmentation at 10 uM after 24 hrs by TUNEL assay; assay type: functional, cell-based
[7] = tested on: MGC-803; assay: Induction of apoptosis in human MGC803 cells assessed as early and late apoptotic level at 10 uM after 12 hrs by annexinV/FITC-PI staining-based flow cytometric analysis; assay type: functional
[8] = tested on: MGC-803; assay: Induction of apoptosis in human MGC803 cells assessed as early and late apoptotic level at 10 uM after 36 hrs by annexinV/FITC-PI staining-based flow cytometric analysis; assay type: functional
[9] = tested on: MGC-803; assay: Induction of apoptosis in human MGC803 cells assessed as early and late apoptotic level at 10 uM after 24 hrs by annexinV/FITC-PI staining-based flow cytometric analysis; assay type: functional
[10] = tested on: MGC-803; assay: Induction of apoptosis in human MGC803 cells assessed as condensed chromatin at 10 uM after 48 hrs by Hoechst 33258 staining; assay type: functional, cell-based
[11] = tested on: MGC-803; assay: Induction of apoptosis in human MGC803 cells at 10 uM after 48 hrs by acridine orange/ethidium bromide staining; assay type: functional, cell-based

Structure (SMILES)	inhibition of growth at 10 µM [1] [%]	inhibition of growth at 10 µM [2] [%]	inhibition at 72 h, 10 µM [3] [%]	pIC50 [4]	pIC50 ([5]; read-out: IC50)	pIC50 [5]	Activity [6]	Activity [7] [%]	Activity [8] [%]	Activity [9] [%]	Activity [10]	Activity [11]
C[C@H]1[C@H](C)CC[C@]2(C(=O)OCCN3CCN(C(=O)c4ccnc(Cl)c4)CC3)CC[C@]3(C)C(=CC[C@@H]4[C@@]5(C)CC[C@H](O)C(C)(C)[C@@H]5CC[C@]43C)[C@H]12	19	24.1	44.3									
C[C@H]1[C@H](C)CC[C@]2(C(=O)OCCN3CCN(C(=O)c4cccnc4Cl)CC3)CC[C@]3(C)C(=CC[C@@H]4[C@@]5(C)CC[C@H](O)C(C)(C)[C@@H]5CC[C@]43C)[C@H]12	29	34.3	4.3	4.85								
C[C@H]1[C@H](C)CC[C@]2(C(=O)OCCN3CCN(C(=O)c4ccc(F)cc4)CC3)CC[C@]3(C)C(=CC[C@@H]4[C@@]5(C)CC[C@H](O)C(C)(C)[C@@H]5CC[C@]43C)[C@H]12	83.7	71.8	71.3	5.14	5.29							
C[C@H]1[C@H](C)CC[C@]2(C(=O)OCCN3CCN(C(=O)c4ccccc4C(F)(F)F)CC3)CC[C@]3(C)C(=CC[C@@H]4[C@@]5(C)CC[C@H](O)C(C)(C)[C@@H]5CC[C@]43C)[C@H]12	38.6	71.2	16.2	5.06	4.96							
C[C@H]1[C@H](C)CC[C@]2(C(=O)OCCN3CCN(C(=O)/C=C/c4ccccc4)CC3)CC[C@]3(C)C(=CC[C@@H]4[C@@]5(C)CC[C@H](O)C(C)(C)[C@@H]5CC[C@]43C)[C@H]12	54.4	51.1	39	4.90	5.04							
COc1cccc2c1C(=O)c1c(O)c3c(c(O)c1C2=O)C[C@@](O)(C(=O)CO)C[C@@H]3O[C@H]1C[C@H](N)[C@H](O)[C@H](C)O1 [DOXORUBICIN]	92.1	92.1	99.2	6.15		5.89						
C[C@H]1[C@H](C)CC[C@]2(C(=O)OCCN3CCN(C(=O)c4ccncc4)CC3)CC[C@]3(C)C(=CC[C@@H]4[C@@]5(C)CC[C@H](O)C(C)(C)[C@@H]5CC[C@]43C)[C@H]12	8.3	32.1	55.4	4.88								
C[C@H]1[C@H](C)CC[C@]2(C(=O)OCCN3CCN(C(=O)c4ccccc4)CC3)CC[C@]3(C)C(=CC[C@@H]4[C@@]5(C)CC[C@H](O)C(C)(C)[C@@H]5CC[C@]43C)[C@H]12	23.9	21.4	19.1									
CCCCCCCCC(=O)N1CCN(CCOC(=O)[C@]23CC[C@@H](C)[C@H](C)[C@H]2C2=CC[C@@H]4[C@@]5(C)CC[C@H](O)C(C)(C)[C@@H]5CC[C@@]4(C)[C@]2(C)CC3)CC1	12.5	44.2	12	< 4.70								
C=C/C=C/CC(=O)N1CCN(CCOC(=O)[C@]23CC[C@@H](C)[C@H](C)[C@H]2C2=CC[C@@H]4[C@@]5(C)CC[C@H](O)C(C)(C)[C@@H]5CC[C@@]4(C)[C@]2(C)CC3)CC1	14.7	23.4	35									
C[C@H]1[C@H](C)CC[C@]2(C(=O)OCCN3CCN(C(=O)c4cccnc4)CC3)CC[C@]3(C)C(=CC[C@@H]4[C@@]5(C)CC[C@H](O)C(C)(C)[C@@H]5CC[C@]43C)[C@H]12	24.5	22	52.3									
C[C@H]1[C@H](C)CC[C@]2(C(=O)OCCN3CCN(C(=O)c4ccc(F)cc4F)CC3)CC[C@]3(C)C(=CC[C@@H]4[C@@]5(C)CC[C@H](O)C(C)(C)[C@@H]5CC[C@]43C)[C@H]12	60.5	32.1	18.1	4.90	5.08							
CC(C)c1ccc(C(=O)N2CCN(CCOC(=O)[C@]34CC[C@@H](C)[C@H](C)[C@H]3C3=CC[C@@H]5[C@@]6(C)CC[C@H](O)C(C)(C)[C@@H]6CC[C@@]5(C)[C@]3(C)CC4)CC2)cc1	45.5	72.3	5.5	5.30	4.93							
C[C@H]1[C@H](C)CC[C@]2(C(=O)OCCBr)CC[C@]3(C)C(=CC[C@@H]4[C@@]5(C)CC[C@H](O)C(C)(C)[C@@H]5CC[C@]43C)[C@H]12	23.1	39.4	11	4.91								
C[C@H]1[C@H](C)CC[C@]2(C(=O)OCCN3CCN(C(=O)c4cc(Cl)ccc4[N+](=O)[O-])CC3)CC[C@]3(C)C(=CC[C@@H]4[C@@]5(C)CC[C@H](O)C(C)(C)[C@@H]5CC[C@]43C)[C@H]12	33.2	57.3	77.7	5.03								
COc1ccc(C(=O)N2CCN(CCOC(=O)[C@]34CC[C@@H](C)[C@H](C)[C@H]3C3=CC[C@@H]5[C@@]6(C)CC[C@H](O)C(C)(C)[C@@H]6CC[C@@]5(C)[C@]3(C)CC4)CC2)cc1OC	51.8	24.5	73.1		4.95							
C[C@H]1[C@H](C)CC[C@]2(C(=O)OCCN3CCN(C(=O)c4cc([N+](=O)[O-])cc([N+](=O)[O-])c4)CC3)CC[C@]3(C)C(=CC[C@@H]4[C@@]5(C)CC[C@H](O)C(C)(C)[C@@H]5CC[C@]43C)[C@H]12	10.7	24.7	37.2									
C[C@H]1[C@H](C)CC[C@]2(C(=O)OCCN3CCN(C(=O)c4ccccc4Cl)CC3)CC[C@]3(C)C(=CC[C@@H]4[C@@]5(C)CC[C@H](O)C(C)(C)[C@@H]5CC[C@]43C)[C@H]12	69.1	93	29.8	5.33	5.14							
CC[C@@]1(O)C(=O)OCc2c1cc1n(c2=O)Cc2cc3cc(O)ccc3nc2-1 [HYDROXYCAMPTOTHECIN]	28.1	29.1	9.3	< 4.70	< 4.70		Active	17.37	24.95	18.66	Active	Active
C[C@H]1[C@H](C)CC[C@]2(C(=O)OCCN3CCN(C(=O)c4c(F)cccc4Cl)CC3)CC[C@]3(C)C(=CC[C@@H]4[C@@]5(C)CC[C@H](O)C(C)(C)[C@@H]5CC[C@]43C)[C@H]12	85.3	92.1	24.4	5.38	5.36							
CCCCC(CC)C(=O)N1CCN(CCOC(=O)[C@]23CC[C@@H](C)[C@H](C)[C@H]2C2=CC[C@@H]4[C@@]5(C)CC[C@H](O)C(C)(C)[C@@H]5CC[C@@]4(C)[C@]2(C)CC3)CC1 (some centres not stated)	68.6	80.8	54.5	5.16	5.38							
C[C@H]1[C@H](C)CC[C@]2(C(=O)OCCN3CCN(C(=O)c4ccc([N+](=O)[O-])cc4)CC3)CC[C@]3(C)C(=CC[C@@H]4[C@@]5(C)CC[C@H](O)C(C)(C)[C@@H]5CC[C@]43C)[C@H]12	19.1	24.3	65.4									
C[C@H]1[C@H](C)CC[C@]2(C(=O)OCCN3CCNCC3)CC[C@]3(C)C(=CC[C@@H]4[C@@]5(C)CC[C@H](O)C(C)(C)[C@@H]5CC[C@]43C)[C@H]12	84.4	86.6	60.1	5.14	5.12							
C[C@H]1[C@H](C)CC[C@]2(C(=O)OCCN3CCN(C(=O)c4cccc(F)c4)CC3)CC[C@]3(C)C(=CC[C@@H]4[C@@]5(C)CC[C@H](O)C(C)(C)[C@@H]5CC[C@]43C)[C@H]12	32.1	45.3	33.5	< 4.70								
Cc1ccccc1C(=O)N1CCN(CCOC(=O)[C@]23CC[C@@H](C)[C@H](C)[C@H]2C2=CC[C@@H]4[C@@]5(C)CC[C@H](O)C(C)(C)[C@@H]5CC[C@@]4(C)[C@]2(C)CC3)CC1	94.8	98.9	60.3	5.44	5.27							
C[C@H]1[C@H](C)CC[C@]2(C(=O)OCCN3CCN(C(=O)Cc4ccc(Cl)cc4)CC3)CC[C@]3(C)C(=CC[C@@H]4[C@@]5(C)CC[C@H](O)C(C)(C)[C@@H]5CC[C@]43C)[C@H]12	52	68.6	2.9	5.07	5.00							
